Measurements taken from patent US20110288154A1, “RNA Interference Mediated Inhibition of Epithelial Sodium Channel (ENaC) Gene Expression Using Short Interfering Nucleic Acid (siNA)” (MERCK & CO., INC., priority 2008, published 2011).

What was measured:
human ENaCα mRNA = test: ENaCα mRNA knockdown and EC50 in human normal bronchial epithelial cells (NHBEs); assay type: cell-based; details: 48 hrs post transfection, n = 3 donors; for EC50: nine point dose range 0.01-100 nM
Method: Human Bronchial Epithelial cells (NHBE cells) obtained from Lonza (Cat. No. CC-2540) were grown at 37 deg in the presence of 5% CO2 and cultured in BEBM basal medium (Lonza, Cat. No. CC-3171) on Biocoat Collagenl coated flasks (Becton Dickinson).
mRNA Knockdown and EC50 in NHBEs: Cells were plated in collagen 1 coated plates and cultured in appropriate culture media. The cells were cultured for 24 hours after plating at 37 deg in the presence of 5% CO2. siNAs were diluted in OptiMEM 1 to 1 uM and the delivery lipid GSK212357A to 25 ug/ml. For formulation of the siNAs equal volumes of the diluted siNA and delivery lipid were combined and incubated for 20 minutes at room temperature. Cells were meanwhile trypsinised and resuspended in antibiotic free BEBM media at 150,000 cells/ml. 20 ul of the formulated siNA and 80 ul of BEBM media was added per well of a 96 well plate (6 replicates/data point/siRNA concentration) so as to give a nine point dose range of the siRNAs (100 nM, 30 nM, 10 nM, 3 nM, 1 nM, 0.3 nM, 0.1 nM, 0.03 nM, 0.01 nM). The time of incubation with the GSK212357A-siNA complexes were 48 hours with one change of media at 24 hours.
RNA Isolation 96 well Plate: Total RNA was isolated from the cells in the 96-well plate format using the Automated SV96 Total RNA Isolation System (Promega) according to the manufacturer's instructions. The Biomek 2000 Laboratory Automation Workstation (Beckman Coulter) was used to apply the transfected cell lysates to a silica membrane. RNase-Free DNase I was then applied directly to the silica membrane to digest contaminating genomic DNA. The bound total RNA was further purified from contaminating salts, proteins and cellular impurities by simple washing steps. Finally, total RNA was eluted from the membrane by the addition of Nuclease-Free Water.
(§1) Quantitative RT-PCR (TaqMan): A series of probes and primers were used for the detection of mRNA transcripts of ENaCα, OAS1, IL8 and GAPDH (as control/normalisation) in the human cell lines. The assays were performed on an ABI 7900HT instrument according to the manufacturer's instructions. Primer Probe sets used GAPDH Forward 5′-[…]-3 (SEQ ID NO: 128), ‘Reverse 5’-GGGCCATCCACAGTCTTCT-3′ (SEQ ID NO: 129), Probe 5′ d FAM-[…]-TAMRA 3′ (SEQ ID NO: 130), ENaCa Forward 5′-[…]-3′ (SEQ ID NO: 131), Reverse 5′-[…]-3′ (SEQ ID NO: 132), Probe 5′ d FAM-[…]-TAMRA 3′ (SEQ ID NO: 133), OAS1 Forward 5′-[…]-3′ (SEQ ID NO: 134), Reverse 5′-[…]-3′ (SEQ ID NO: 135), Probe 5′ d FAM-[…]-TAMRA 3′ (SEQ ID NO: 136), IL8 Forward 5′-CTGGCCGTGGCTCTCTTG-3′ (SEQ ID NO: 137), Reverse 5′-[…]-3′ (SEQ ID NO: 138), Probe 5′ d FAM-[…]-TAMRA 3′ (SEQ ID NO: 139).
TaqMan: Critical threshold values (Ct) were converted to copy numbers corresponding to the particular gene analysed in each well of the 384 well plate. Six identical wells were prepared in each plate for a given treatment. […] Determination of the percentage coefficient of variation (CV) (% C.V.=[standard deviation/average]*100) allowed the omitting of wells whose value was an outlier (so that % C.V.<25). Relative abundance (aka relative expression) of a gene was determined by dividing the mean copy number of that gene with its GAPDH counterpart in that particular sample.
EC50 values were calculated from the data using sigma plot. All calculations of the efficacy and potency of the siNAs were done relative to the non-targeting control siNA.

ENaC = test: FLIPR assay of sodium transport in recombinant HEK cells over expressing ENaC; assay type: cell-based, human; details: FLIPR, n = 6, mean of 3 independent experiments
Method: (§2) Recombinant HEK293 cell line (expressing ENaC beta & gamma) SCNN1B (P618AY620L)+SCNN1G (P624stop) #24. were grown at 37 deg in the presence of CO2 and were cultured in M1 medium M1+0.5 mg/ml geneticin and 0.2 mg/ml hygromycin.
(§3) Functional Effects on ENaC via FLIPR in Cells Over Expressing ENaCa: A reverse transfection methodology was used to transfect the HEK recombinant cell line. 5 ul of siRNA (diluted in Optimem to the appropriate concentration) was mixed with 5 ul of the Gemini lipid transfection reagent diluted in Optimem in 384 well non-coated FLIPR plate. Plates were incubated at room temperature for 20 minutes to allow complex formation. Cells were harvested, spun down, diluted to 3×10^5/ml and plated out at 40 ul/well (12K/well) in 384 well plate format containing the transfection complex. The plates were incubated overnight for 20 hours. The cells were then transduced with BacMam virus expressing ENaC alpha (BacMam viruses expressing SCNN1A, GRITS 29703, titre 0.356×10^8/ml). 30 ul of virus was added (1.7%) 20K/well, MOI was approximately 1. Cells were incubated for 24 hours. On day of the FLIPR assay, media was aspirated, leaving 10 ul volume. 20 ul of dye per well was loaded (FMP2 Blue dye, R8181, MDS. For each pot, 133 ml Tyrodes buffer was diluted to make 1× stock prior to assay). The plate was incubated for 0.5 hours at room temperature and 10 ul of the compound added on-line prior to FLIPR read (FLIPR settings: protocol Na MP.fcf, with Exposure length 0.4 sec and Filter #2). Compound plate: 1 ul volume, column 1, 2 and 3 are 16, 4 and 0 uM amiloride final (1/200 dilution) (IC80, IC50 and ctrl).

ENaC-alpha mRNA = ENaC-alpha mRNA knockdown in recombinant HEK cells of the FLIPR assay; assay type: cell-based, human; details: n = 6, mean of 3 independent experiments
Method: as §2, §3
RNA isolation 384 well Plate: Extract mRNA using Qiagen Turbo Capture RNA preparation kit, following manufacturer's instructions.
as §1

[1] = final siNA concentration 100 nM

Substance	Maximum mRNA knockdown NHBEs (human ENaCα mRNA) [%]	EC50 (human ENaCα mRNA) [nM]	% Inhibition of Maximal Response (4 uM amiloride) (ENaC; final siNA concentration 10 nM) [%]	% Inhibition of Maximal Response (16 uM amiloride) (ENaC; final siNA concentration 10 nM) [%]	% Inhibition of Maximal Response (4 uM amiloride) (ENaC; final siNA concentration 20 nM) [%]	% Inhibition of Maximal Response (16 uM amiloride) (ENaC; final siNA concentration 20 nM) [%]	% Inhibition of Maximal Response (4 uM amiloride) (ENaC; final siNA concentration 50 nM) [%]	% Inhibition of Maximal Response (16 uM amiloride) (ENaC; final siNA concentration 50 nM) [%]	% Inhibition of Maximal Response (4 uM amiloride) (ENaC; [1]) [%]	% Inhibition of Maximal Response (16 uM amiloride) (ENaC; [1]) [%]	% ENaC-alpha mRNA knockdown (ENaC-alpha mRNA; final siNA concentration 10 nM) [%]	% ENaC-alpha mRNA knockdown (ENaC-alpha mRNA; final siNA concentration 20 nM) [%]	% ENaC-alpha mRNA knockdown (ENaC-alpha mRNA; final siNA concentration 50 nM) [%]	% ENaC-alpha mRNA knockdown (ENaC-alpha mRNA; [1]) [%]
B GcuGuGccuAcAucuucuA TTB / UAGAAGAuGuAGGcAcAGcUU (sense GCUGUGCCUACAUCUUCUATT; antisense UAGAAGAUGUAGGCACAGCUU; siRNA; B caps on sense ends, letter-case modifications not given here, further chemistry not given here) [Site 1388]	79	4.2	–	–	–	–	–	–	–	–	–	–	–	–
B uGuGcAAccAGAAcAAAuc TTB / GAUuuGuucuGGuuGcAcAUU (chain 1 UGUGCAACCAGAACAAAUCTT; chain 2 GAUUUGUUCUGGUUGCACAUU; siRNA; B caps on sense ends, letter-case modifications not given here, further chemistry not given here) [Site 782]	79	0.47	37.1	40.8	41.4	47.9	52.5	59.7	81.5	85.2	61.7	67.7	75.1	73.1
B GuGuGGcuGuGccuAcAuc TTB / GAUGuAGGcAcAGccAcAcUU (sense GUGUGGCUGUGCCUACAUCTT; antisense GAUGUAGGCACAGCCACACUU; siRNA; B caps on sense ends, letter-case modifications not given here, further chemistry not given here) [Site 1383]	64	4.9	–	–	–	–	–	–	–	–	–	–	–	–
B uuAuGGAuGAuGGuGGcuu TTB / AAGccAccAucAuccAuAAUU (sense UUAUGGAUGAUGGUGGCUUTT; antisense AAGCCACCAUCAUCCAUAAUU; siRNA; B caps on sense ends, letter-case modifications not given here, further chemistry not given here) [Site 1181]	78	1.59	43.8	45.8	48.9	51.4	62.2	65.5	77.5	77.5	52.6	65.6	76.1	76.9
